Changes are numbered by the printed parent chain. Like-named read-outs stand apart in the source and are kept apart here.

One experiment has as its target MdfA. On the set-up: method as in Heng et al., 2015. The conditions noted are these: ref Heng et al., 2015; read-out: Binding affinity between MdfA and the substrate; cited from earlier work.
For experiment [1], the target named is T1, SotB (Escherichia coli, UniProt P31122).
T1 construct: The full-length sotB and lapC genes from the E. coli MG1655 genome were subcloned into the cloning vector pET28a; 8xHis (C); made in house; host or cells: E. coli C43(DE3)
The experiment can be described thus: SPR affinity assay, wild-type SotB. Type of experiment: binding. On the procedure: (§1) The instrument used in surface plasmon resonance (SPR) affinity assays was OpenSPR (Nicoya, Canada) and the chip used was COOH sensor chip (Nicoya, Canada). SotB and its variants were as ligands. IPTG, L-arabinose, D-xylose, D-glucose, D-fructose, and D-mannose were as small molecules. Using HSB-EP buffer (10 mM HEPES, 150 mM NaCl, 3 mM EDTA, 0.005% Tween-20, pH7.4) as test buffer and setting flow rate 150 μl/min after installed COOH chip according to OpenSPRTM instrument standard operating procedure. After the signal baseline was reached, loading 200 μl 80% isopropyl alcohol and ran for 10 s to drain bubbles. After reaching baseline, the sample ring was rinsed with HSB-EP buffer and emptied with air. After the signal reached the baseline, loading 200 μl EDC (400 mM, Sigma)/NHS (100 mM, Sigma; 1:1) solution with a flow rate 20 μl/min for 4 min. Then, loading 200 μl ligand (SotB/SotB variants) diluted by the activation buffer (sodium acetate, 10 mM, pH3.5) and ran for 4 min (20 μl/min). Then the sample ring was rinsed with HSB-EP buffer and emptied with air. Loading 200 μl 1 M ethanolamine (Sigma) blocking solution (20 μl/min, 4 min), rinsed the sample ring with HSB-EP buffer, and emptied the sample ring with air. Observing baseline for 5 min to ensure stability. The small molecules were diluted with PBS buffer (2 mM of KH2PO4, 10 mM of Na2HPO4, 2.7 mM of KCl, and 137 mM of NaCl at pH 7.4), and the concentration was shown in the experimental results. The flow rate for small molecules was performed at 20 μl/min. The binding time of small molecule and ligand was 240 s, and the dissociation was 240 s. The analysis software used for the experimental results was TraceDrawer, and the analysis method was one-to-one analysis model.

The test system of experiment [2] is intact E. coli MG1655 strain. The experiment can be described thus: Growth curve (L-arabinose inhibition / D-xylose competition) assay, intact MG1655. Type of experiment: cell-based, Escherichia coli. The text has this: In the process of sotB gene knockout, two plasmids were introduced into E. coli MG1655 strain: the plasmid pEcCas expressing Cas9 protein (kanamycin resistance) and the plasmid pEcgRNA/sotB expressing related gRNA (spectinomycin resistance). The pEcCas plasmid was successfully eliminated in this study. […] Thus, the sotB-deletion strain has resistance to spectinomycin. In order to carry out the related L-arabinose inhibition assay more strictly, the same plasmid (pEcgRNA/sotB) was then transformed into intact E. coli MG1655 cells, and the growth conditions of the two strains were measured as follows: The E. coli MG1655 cells (intact cells and sotB-deletion cells) were grown in liquid LB medium containing spectinomycin (50 μg/ml) at 37°C for overnight. The cells were then diluted to an OD600 value of 0.8 with liquid LB medium containing spectinomycin (50 μg/ml). Then, the cells were further diluted 1,000 times with liquid LB medium containing spectinomycin (50 μg/ml). The diluted cells were added to a 96-well plate (200 μl/well). Then, L-arabinose was added with final concentrations of 0 μM, 10 μM, 100 μM, 1 mM, 10 mM, and 100 mM, respectively. The 96-well plate was incubated at 37°C, and the OD600 value was measured every 1 h with a microplate reader. For the competition assay, the intact MG1655 cells diluted 1,000 times were divided into two parts and then added into 96-well plate (200 μl/well). One part was directly added with D-xylose at a final concentration of 0, 1, and 10 mM, respectively; the other part was first added with L-arabinose at a final concentration of 10 mM, then D-xylose was added with final concentrations of 0, 1, and 10 mM, respectively. The method of growth curve measurement is the same as above. All the experiments were repeated at least three times.

A further experiment concerns the target XlyE. On the set-up: method as in Sun et al., 2012. The conditions noted are these: ref Sun et al., 2012; read-out: Binding affinity between XlyE and its substrate; cited from earlier work.
Experiment [3] has as its target T1, SotB. Particulars: ref Koita and Rao, 2012; cited from earlier work.
In the next experiment the target is T2, SotB S339A (Escherichia coli, UniProt P31122, S339A).
T2 construct: The full-length sotB and lapC genes from the E. coli MG1655 genome were subcloned into the cloning vector pET28a; 8xHis (C); made in house; host or cells: E. coli C43(DE3)
T2 sequence (P31122 1-396 S339A): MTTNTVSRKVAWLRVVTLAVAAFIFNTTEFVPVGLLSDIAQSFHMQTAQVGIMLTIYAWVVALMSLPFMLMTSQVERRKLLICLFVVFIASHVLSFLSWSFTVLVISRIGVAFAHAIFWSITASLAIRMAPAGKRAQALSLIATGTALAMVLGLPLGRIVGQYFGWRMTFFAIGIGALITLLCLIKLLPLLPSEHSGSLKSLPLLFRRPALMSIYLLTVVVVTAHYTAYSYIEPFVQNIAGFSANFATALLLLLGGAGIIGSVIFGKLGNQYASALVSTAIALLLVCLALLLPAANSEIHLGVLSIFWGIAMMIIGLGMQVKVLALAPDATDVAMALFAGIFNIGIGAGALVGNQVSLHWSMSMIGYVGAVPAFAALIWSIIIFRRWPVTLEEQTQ
The experiment can be described thus: SPR affinity assay, SotB variant S339A. The conditions noted are these: read-out: KD, binding affinity with S339A. As for the experimental part:
as §1, with “The small molecules were diluted with PBS buffer (2 mM of KH2PO4, 10 mM of Na2HPO4, 2.7 mM of KCl, and 137 mM of NaCl at pH 7.4), and the concentration was shown in the experimental results. The flow rate for small molecules was performed at 20 μl/min. The binding time of small molecule and ligand was 240 s, and the dissociation was 240 s. The analysis software used for the experimental results was TraceDrawer, and the analysis method was one-to-one analysis model.” left out

The target of another experiment is T3, SotB E29A (Escherichia coli, UniProt P31122, E29A).
T3 construct: The full-length sotB and lapC genes from the E. coli MG1655 genome were subcloned into the cloning vector pET28a; 8xHis (C); made in house; host or cells: E. coli C43(DE3)
T3 sequence (P31122 1-396 E29A): T2 sequence (P31122 1-396 S339A) with E29A, A339S
Put plainly: SPR affinity assay, SotB variant E29A. The conditions noted are these: read-out: KD, binding affinity with E29A. On the procedure:
as §1, with “The small molecules were diluted with PBS buffer (2 mM of KH2PO4, 10 mM of Na2HPO4, 2.7 mM of KCl, and 137 mM of NaCl at pH 7.4), and the concentration was shown in the experimental results. The flow rate for small molecules was performed at 20 μl/min. The binding time of small molecule and ligand was 240 s, and the dissociation was 240 s. The analysis software used for the experimental results was TraceDrawer, and the analysis method was one-to-one analysis model.” left out

The target in another experiment is T4, SotB N343A (Escherichia coli, UniProt P31122, N343A).
T4 construct: The full-length sotB and lapC genes from the E. coli MG1655 genome were subcloned into the cloning vector pET28a; 8xHis (C); made in house; host or cells: E. coli C43(DE3)
T4 sequence (P31122 1-396 N343A): T2 sequence (P31122 1-396 S339A) with A339S, N343A
Put plainly: SPR affinity assay, SotB variant N343A. Type of experiment: binding. Particulars: SotB variant N343A, read-out: KD, binding affinity with N343A. As for the experimental part: as §1

Another experiment addresses T5, SotB H115A (Escherichia coli, UniProt P31122, H115A).
T5 construct: The full-length sotB and lapC genes from the E. coli MG1655 genome were subcloned into the cloning vector pET28a; 8xHis (C); made in house; host or cells: E. coli C43(DE3)
T5 sequence (P31122 1-396 H115A): T2 sequence (P31122 1-396 S339A) with H115A, A339S
Put plainly: SPR affinity assay, SotB variant H115A. Type of experiment: binding. The conditions noted are these: SotB variant H115A, read-out: KD, binding affinity with H115A. As for the experimental part:
as §1

The target of another experiment is T6, SotB W119A (Escherichia coli, UniProt P31122, W119A).
T6 construct: The full-length sotB and lapC genes from the E. coli MG1655 genome were subcloned into the cloning vector pET28a; 8xHis (C); made in house; host or cells: E. coli C43(DE3)
T6 sequence (P31122 1-396 W119A): T2 sequence (P31122 1-396 S339A) with W119A, A339S
The experiment can be described thus: SPR affinity assay, SotB variant W119A. The conditions noted are these: read-out: KD, binding affinity with W119A. On the procedure:
as §1, with “The small molecules were diluted with PBS buffer (2 mM of KH2PO4, 10 mM of Na2HPO4, 2.7 mM of KCl, and 137 mM of NaCl at pH 7.4), and the concentration was shown in the experimental results. The flow rate for small molecules was performed at 20 μl/min. The binding time of small molecule and ligand was 240 s, and the dissociation was 240 s. The analysis software used for the experimental results was TraceDrawer, and the analysis method was one-to-one analysis model.” left out

The target of another experiment is FucP. On the set-up: method as in Dang et al., 2010. The conditions noted are these: ref Dang et al., 2010; read-out: Binding affinity between FucP and the substrate; cited from earlier work.
A further experiment addresses MelB. On the set-up: method as in Ethayathulla et al., 2014. The conditions noted are these: ref Ethayathulla et al., 2014; read-out: Binding affinity between MelB and the substrate; cited from earlier work.
For experiment [4], the target named is T1, SotB. The experiment can be described thus: Cell based radiotracer uptake assay. The conditions noted are these: E. coli C43(DE3), 0.1 μM tracer, 1 h, p < 0.01. As for the experimental part: The cell-based uptake assay was performed with the following protocol. Plasmids pET28a and pET28a/sotB were transformed into E. coli C43(DE3) competent cells, respectively. Then, these two kinds of cells were grown in LB medium at 37°C and induced with 0.2 mM IPTG for 1 h, when the cell density reached an OD600 of about 1.5. Cells were then harvested by centrifugation. After being washed three times with MK buffer (150 mM KCl, 5 mM MES, pH 6.5), the cells were resuspended in the same buffer to an OD600 of 2.0. To measure the transport activity of SotB protein, took 5 ml of the above cell suspension, respectively, and added ^3H-L-arabinose (American Radiolabeled Chemicals) at a final concentration of 0.1 μM. All the reactions lasted 1 h and were stopped by diluting the cell suspension with 5 ml ice-cold MK buffer. Cells were then harvested by centrifugation. After being washed three times with ddH2O, the cells were resuspended in 5 ml ddH2O, respectively. Then the cells were added to the sample bottle, respectively, and mixed with the same volume of excess scintillation, and then taken for liquid scintillation counting. All the experiments were repeated at least three times.

The mark [5] stands for this setting: SPR, wild-type SotB immobilised, one-to-one model, read-out: KD (equilibrium dissociation constant), binding affinity with SotB.

T1 sequence (P31122 whole entry): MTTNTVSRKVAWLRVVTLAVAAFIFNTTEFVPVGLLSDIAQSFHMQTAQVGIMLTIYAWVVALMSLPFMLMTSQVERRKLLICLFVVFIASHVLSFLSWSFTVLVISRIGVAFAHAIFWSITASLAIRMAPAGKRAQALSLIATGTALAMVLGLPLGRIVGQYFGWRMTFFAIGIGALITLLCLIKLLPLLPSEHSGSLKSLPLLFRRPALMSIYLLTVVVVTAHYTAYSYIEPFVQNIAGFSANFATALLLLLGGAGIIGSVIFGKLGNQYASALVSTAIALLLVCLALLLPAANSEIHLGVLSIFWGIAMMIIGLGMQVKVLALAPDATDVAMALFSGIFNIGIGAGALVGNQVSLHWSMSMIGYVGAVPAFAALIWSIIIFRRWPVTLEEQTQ

Turning to `O=C(N[C@H](CO)[C@H](O)c1ccc([N+](=O)[O-])cc1)C(Cl)Cl` [Chloramphenicol], the Kd at MdfA is 0.075 mM.

At SotB [1], `O=C(CO)[C@@H](O)[C@H](O)[C@H](O)CO` [D-fructose] returned a Kd of 6.6 mM.

On to `OC[C@H]1OC(O)[C@H](O)[C@@H](O)[C@@H]1O` (stereo partly drawn) [D-glucose], for which, at SotB [1] (setting [5]), the Kd came to 2.6 mM.

Take `OC[C@H]1OC(O)[C@@H](O)[C@@H](O)[C@@H]1O` (stereo partly drawn) [D-mannose]: the Kd on SotB [1] (setting [5]) was found to be 3.1 mM.

With `O=C[C@H](O)[C@@H](O)[C@H](O)CO` [D-xylose], the “Binding affinity to SotB, fold higher than that of L-arabinose to SotB” value at SotB [1] (SPR, wild-type SotB) was 8.7 fold. Also, the Kd on SotB [1] (setting [5]) was 0.47 mM; on XlyE, 0.35 mM. Also, the “Effect on growth (OD600 growth curve)” value in experiment [2] (intact MG1655, 1 mM D-xylose, without L-arabinose) is “did not cause any growth inhibition”; in experiment [2] (intact MG1655, 10 mM D-xylose in the presence of 10 mM L-arabinose), “inhibit the growth”; in experiment [2] (intact MG1655, 10 mM D-xylose, without L-arabinose) it was “did not cause any growth inhibition”. Besides, the “Transport by SotB” value on SotB [3] is “cannot transport”.

For `CC(C)S[C@@H]1O[C@H](CO)[C@H](O)[C@H](O)[C@H]1O` [IPTG, isopropyl-β-D-1-thiogalactopyranoside], the “Binding affinity with SotB, fold lower than that of L-arabinose with SotB” value on SotB [1] (SPR, wild-type SotB) is roughly 2.5 fold. Also, the Kd is 10.2 mM at SotB [1] (setting [5]); 7.6 mM at SotB S339A; 7.6 mM on SotB E29A; 15 mM at SotB N343A; 13.7 mM on SotB H115A; 6.7 mM on SotB W119A.

For the molecule `C[C@H](O)[C@@H](O)[C@@H](O)[C@H](O)C=O` [fucose], the Kd at FucP is 0.47 mM.

With `OC[C@H]1O[C@H](OCC2O[C@@H](O)[C@H](O)[C@@H](O)[C@@H]2O)[C@H](O)[C@@H](O)[C@H]1O` (stereo partly drawn) [melibiose], the Kd on MelB was 1 mM.

Regarding ^3H-L-arabinose, the “Accumulation in cells expressing wild-type SotB relative to empty vector pET28a” value on SotB [4] was “significant reduced accumulation”.

The values above are taken from publication PMC9650428, “Mutagenesis and functional analysis of SotB: A multidrug transporter of the major facilitator superfamily from Escherichia coli” (Frontiers in Microbiology, 2022).
